For orientation: solubility means the dissolved amount per volume that the medium holds. A higher solubility goes with much dissolved substance. As a reminder, the Tmax is the time at which the peak concentration occurs.

“Also recorded” adds a separate entry of the source. Read-outs that look alike come from different tables or passages of the source.

The nature of data set [1]: Solubility of sodium oxybate (GHB) in aqueous solution versus pH. To be noted: for State of 1000 mg/cc solution: pH unadjusted.
Data set [2] is described as follows: Pharmacokinetics of GHB after two consecutive 3 g oral doses in narcoleptic patients. The data set is classed as in vivo, human. To be noted: for Cmax: po, read-out: maximum GHB concentration (Cmax), mean ±SD. On the procedure:
The objective of this study was to assess the pharmacokinetics of GHB after oral administration of two consecutive single doses of GHB (3 g/dose; patients generally ingested the first dose of this medication prior to bedtime and the second dose from 2.5 to 4.0 h later) to narcoleptic patients who are maintained on a chronic regimen of GHB.
This pharmacokinetic study was conducted as an open-label, single-center investigation in 6 narcoleptic patients. The study design is summarized as follows:
Before oral administration of the first GHB dose, an indwelling catheter was placed in an arm vein and a baseline blood sample was collected. Each patient then ingested a 3 g dose of GHB before bedtime. Another 3 g GHB dose was administered 4 h after the first dose. Twenty-one sequential blood samples were collected over 12 h (starting at 10 min after the first dose and ending at 8 h after the second dose). Upon completion of the treatment phase, a follow-up physical examination which included the measurement of vital signs was performed on each patient within 48 h after the last blood sample. A detailed description of the trial methodology is presented in Section IV.
All patients were hospitalized from approximately four hours prior to first GHB dosing (around 6 p.m.) until the end of the treatment period (around 10 a.m. the next morning). Patients ate their dinner at the clinical research unit soon after arrival and fasted until breakfast next morning. At least three hours elapsed between the completion of dinner and the administration of the first GHB dose. An indwelling catheter was placed in an arm vein of each patient for blood sampling at approximately 30 min and 1 h before the first GHB dose and a baseline blood sample (5 mL) was collected.
The first GHB dose (3 g) was administered at around 10 p.m. Dosing of individual patients were staggered. The second GHB dose was administered at 4 h after the first GHB dose (i.e. immediately after the 4 h blood sample). The exact dosing times in each patient were recorded on appropriate CRF pages. Blood samples (5 mL each) were collected through the indwelling catheter into heparinized tubes at 0.2, 0.4, 0.6, 0.8, 1, 1.5, 2, 3, 4, 4.2, 4.4, 4.6, […], 5, 5.5, […], 7, 8, 10, and 12 h after the first GHB dose. Blood samples were processed according to the procedures described herein. Patients were monitored for adverse experiences throughout the study according to the specific procedures.
Dose Administration: The investigator or designee prepared the oral solution for dosing within 30 min prior to the first oral administration to individual patients. The contents of one twin-pouch was emptied into a dosing cup to which two ounces of water were added. After replacing the lid of the dosing cup, it was gently shaken to dissolve the GHB and excipient in water. The GHB solution was ingested in its entirety. Likewise, the second GHB dosing solution was prepared in the same manner and was ingesting in its entirety at 4 h after the first GHB dose.
Plasma samples were analyzed for GHB by the Department of Bioanalytical Chemistry (Covance (previously known as Hazelton Corning), Madison, Wis.) A gas chromatographic method with mass selective detection (GC-MSD) was used in the analysis.
Pharmacokinetic Analysis: Pharmacokinetic parameters were determined for individual sets of plasma GHB concentration vs. time data using the non-compartmental routine in WinNonlin Version 1.1. The peak GHB concentrations (Cmax) and the times of their respectively occurrences (tmax) were observed values. Terminal half-life (T1/2) was obtained by log-linear regression analysis of the terminal phase of concentration vs. time curves. The area under the curve (AUCinf) and the area under the first moment curve (AUMCinf) were calculated by the linear trapezoidal rule up to the last determined concentration and included extrapolated areas to time infinity. Apparent oral clearance (CL/F) was calculated as Dose/AUCinf. […]

Data set [3] can be described thus: Safety assessment in the pharmacokinetic study (adverse experiences, physical examination). In kind it is in vivo, human. The method, then: Follow-up occurred within 48 h after the last blood sample had been collected. An abbreviated physical examination which included vital signs measurement was performed. Adverse experiences and concomitant medication use, if any, were assessed. Any ongoing adverse experiences and clinically important findings in a patient were followed to the investigator's and/or sponsor's satisfaction before the patient was discharged from the study.
An adverse experience are any undesirable event experienced by a patient or volunteer whether or not considered drug-related by the investigator. An undesirable event can be, but is not limited to, subjective symptoms experienced by a patient or, objective findings such as significant clinical laboratory abnormalities. Adverse experience is considered synonymous with the term “adverse event”.
The investigators report in detail all adverse experiences and symptoms that occurred during or following the course of trial drug administration for up to 2 days. Included in the description was the nature of the sign or symptom; the date of onset; date or resolution (duration); the severity; the relationship to trial treatment or other therapy; the action taken, if any; and the outcome.
Safety Analyses: Results of physical examinations, vital signs, clinical laboratory data were summarized in tabular form and presented by patient number. […]

The conditions of data set [4]: alcohol dependent patients, cited from earlier work.

In the case of `O=C(O)CCCO` [Sodium Oxybate, sodium oxybate], the solubility entry was “not soluble” in data set [1] (500 mg/cc with Malic Acid at pH 5.0); 450 mg/mL in data set [1] (aqueous medium, 25 °C, pH 4, aqueous buffer, thermodynamic from solid); 500 mg/mL in data set [1] (aqueous medium, 25 °C, pH 5, aqueous buffer, thermodynamic from solid); 600 mg/mL in data set [1] (aqueous medium, 25 °C, pH 6, aqueous buffer, thermodynamic from solid); 750 mg/mL in data set [1] (aqueous medium, 25 °C, pH 6.8, aqueous buffer, thermodynamic from solid); no less than 750 mg/mL in data set [1] (aqueous medium, 25 °C, pH 10.3, thermodynamic from solid). The molecule also displayed a solubility in data set [1] (aqueous medium, 65 °C, thermodynamic from solid) of 1000 mg/mL. Besides, the “Maxium Solubility” value in data set [1] (pH 4 (HCl), 25°) is recorded as 450 mg/cc; in data set [1] (pH 5 (HCl), 25°), 500 mg/cc; in data set [1] (pH 6 (HCl), 25°), 600 mg/cc; in data set [1] (pH 6.8 (HCl), 25°), 750 mg/cc; in data set [1] (pH 10.3, 25°), 750 mg/cc +; in data set [1] (pH (unadjusted), 65° Soluble, 25° Gel) it was 1000 mg/cc. Also, the “State of 1000 mg/cc solution” value in data set [1] (25°) is listed as “Gel”; in data set [1] (65°) it was “Soluble,”.

Take `O=C(O)CCCO` [GHB, gamma-hydroxybutyrate]: the “highest plasma GHB concentration observed in the study” value in data set [2] (Subject 101 after the second 3 g GHB dose) stood at 125.0 µg/mL. The entries for the “mean observed time to maximum concentration” value in data set [2] (after the first GHB dose) and in data set [2] (after the second GHB dose) were 40 ± 6 min and 36 ± 7 min, respectively. The “time by which plasma GHB concentrations were no longer detectable” value in data set [2] (after the second GHB dose (10 h after the first GHB dose)) is on record as no more than 6 h. Moreover, the Tmax in data set [2] (human, plasma, oral, 3 g, after dosing (discussion)) was roughly 40 min. Moreover, in data set [2] (human, plasma, oral, 3 g, at h 4 after the first GHB dose, in three of six patients, read-out: residual GHB levels), the concentration at 4 h was roughly 15 µg/mL. Also, the half-life is less than 60 min in data set [2] (human, plasma, oral, narcoleptic patients, read-out: elimination half-life of GHB) and 53 ± 19 min in data set [2] (human, plasma, oral, terminal phase of the second GHB dose, read-out: mean GHB T1/2 (elimination half-life)). The Cmax in data set [2] (human, plasma, 3 g, first 3 g oral GHB dose, 6 narcoleptic patients) came out at 62.8 ± 27.4 µg/mL; in data set [2] (human, plasma, 3 g, second 3 g oral GHB dose (4 h after the first)), 91.2 ± 25.6 µg/mL. In data set [2] (human, plasma, two 3 g oral doses 4 h apart, read-out: mean AUCinf (converted)), the AUC(0-inf) is 296 µg·h/mL. In data set [2] (human, plasma, two 3 g oral doses 4 h apart, read-out: mean CL/F (apparent oral clearance)), the CL/F was 4.2 ± 1 mL/min/kg. Also, the MRT inf in data set [2] (human, plasma, two 3 g oral doses 4 h apart, read-out: mean MRTinf (converted)) is 249 min. In addition, the Vd/F in data set [2] (human, plasma, two 3 g oral doses 4 h apart, read-out: mean Vz/F) came out at 0.307 ± 0.096 L/kg. In data set [2] (terminal phase of the second GHB dose), the “mean GHB T1/2 (elimination half-life)” value is reported as roughly 35 min. In data set [3] (narcoleptic patients, two 3 g oral doses), the “adverse experiences / tolerability” value was “No adverse experiences were reported; also recorded: well tolerated”. The “follow-up physical examination results” value in data set [3] (screen versus follow-up, per individual patient) is “did not identify any changes attributable to GHB”. The apparent oral clearance in data set [4] (25 mg/kg dose (Ferrara, 1992)) is 8.1 ± 4.8 mL/min/kg; in data set [4] (dose of 50 mg/kg (Ferrara, 1992)), 5.3 ± 2.2 mL/min/kg. Also, the solubility was no more than 750 mg/mL in data set [1] (aqueous medium, 25 °C, thermodynamic from solid) and no less than 1000 mg/mL in data set [1] (aqueous medium, 100 °C, thermodynamic from solid).
